{"source": "patent EP0934745B1", "about": "“Use of androsterone derivatives for inhibiting DNA binding of ap-1 and airway smooth muscle proliferation” (CHARLOTTE-MECKLENBURG HOSPITAL doing business as Carolinas …, priority 1998, dated 1999)", "tested_on": "rat tracheal smooth muscle", "assay": "Proliferation of cultured airway smooth muscle (MTT reduction, cell counts)", "type": "cell-based", "details": "Rattus norvegicus; 50,000 cells/well cultured in 10% FBS for 48 hours; MTT reduction (Figure 3D); read-out: 50% inhibitory concentration", "procedure": "Polyclonal horseradish peroxidase anti-rabbit IgG was from Transduction Laboratories (Lexington, KY). M-MLV reverse transcriptase was from Life Technologies (Gaithersburg, MD). All other materials were obtained from Sigma unless specified. Measurement of Cultured Airway Smooth Muscle Proliferation. Rat tracheal smooth muscle was cultured by euthanizing rats with pentobarbital overdose and removal of their tracheas. The posterior tracheal membrane was isolated, minced and digested twice for 30 minutes at 37°C. in HBSS containing 0.2% type IV collagenase and 0.05% type IV elastase. Each enzyme digest was collected and centrifuged for 5 minutes at 500 g at room temperature. The supernatant was removed and the pellet was resuspended in DMEM supplemented with 10% FBS, nonessential amino acids, penicillin (100 U/ml), streptomycin (100 µg/ml) and amphotericin (250 ng/ml). Cells were seeded in this medium into 25-cm^2 flasks at 2 x 10^5 cells per flask and incubated in a humidified atmosphere of 5% CO2/95% air at 37°C. Upon reaching confluence, cells were detached with 0.25% trypsin-0.002% EDTA solution for passage.\nProliferation of cultured airway smooth muscle was quantitated using modification of a previously reported colorimetric method based upon metabolic reduction of the soluble yellow tetrazolium dye 3-[4,5-dimethylthiazol]-2yl-2,5-diphenyl tetrazolium bromide (MTT) to its insoluble purple formazan by the action of mitochondrial succinyl dehydrogenase. See Hirst, S.J., Barnes, P.J., and Twort, C.H.C., \"Quantifying proliferation of cultured human and rabbit airway smooth muscle in response to serum and platelet derived growth factor,\" Am. J. Respir. Cell Mol. Biol., 7, 574-581 (1992). This assay empirically distinguishes between dead and living cells. For proliferation studies, cells were seeded into 24-well uncoated plastic plates at 15,000-50,000 cells per well and cultured with DMEM and mitogens. After 24-96 hours the medium was replaced with 1 ml/well fresh DMEM containing 100 µg/ml MTT and 0.5% FBS, and plates were incubated an additional hour MTT-containing medium was removed, cells were washed twice with 1 ml of sterile Dulbecco's modified phosphate buffered saline without Ca^2+ or Mg^2+ (DPBS), 0.5 ml dimethylsulfoxide (DMSO) was added to each well, and the absorbance of the solubilized purple formazan dye was measured at 540 nm on a Shimadzu UV160U spectrophotometer. A total of 4-6 wells was studied at each treatment condition.\nThe optimum concentration of FBS for use as a mitogenic stimulus was determined by incubating 15,000 cells per well with DMEM containing 0.25, 1.0, 5.0 or 10.0% FBS and MTT reduction was determined after 24, 48, 72 or 96 hours. […] After 24 hours, cells were washed twice with DPBS, fixed and permeabilized by two sequential 5 minute exposures to ice-cold methanol, stained with Giemsa-modified Wright's stain for 3 minutes and washed with DPBS. Cell counts were performed on 10 random fields at 40 power using a 0.01-cm^2 ocular grid. Cell Culture Treatments for Measurement of Airway Smooth Muscle Proliferation. The effect of dehydroepiandrosterone (DHEA) and 16α-bromoepiandrosterone (16α-BrEA) on cellular proliferation was studied in cultures stimulated with 0.5-10% FBS or 1-50 ng/ml recombinant human platelet derived growth factor (PDGF-AA). […] See, for example, the method of Le, Y. Y. , and Xu, R.B., \"The molecular mechanism of the action of the pharmacological doses of glucocorticoids. Studies on the low-affinity glucocorticoid receptor,\" Receptor, 5, 63-69 (1995)."}
{"smiles": "C[C@@H]1C[C@H]2[C@@H]3CCC4=CC(=O)C=C[C@]4(C)[C@@]3(F)[C@@H](O)C[C@]2(C)[C@@]1(O)C(=O)CO", "note": "[dexamethasone, reference compound]", "values": [{"measurement": "IC50", "result": 10, "unit": "µM"}]}
